Measurements: article PMC12346692, “SUL-150 Limits Vascular Remodeling and Ventricular Failure in Pulmonary Arterial Hypertension” (International Journal of Molecular Sciences, 2025)

What was measured:
PAH rats = experiment: Histochemistry: pulmonary artery and vessel remodeling, cardiomyocyte hypertrophy, cardiac fibrosis; assay type: in vivo, rat; conditions: ~6 mg·kg^−1·day^−1 i.p. minipump, 28 days
Method: Cross-sectional cardiomyocyte area was determined for approximately 400 cardiomyocytes/sample (range 182–768) using Fiji 2.1.0/1.53c in binary mode with the following particle analyzer settings: circularity 0.25–1.00 and pixel area 300–1000 px^2.
Cardiac fibrosis was measured after picrosirius staining and counterstaining with Weigert’s hematoxylin (both Sigma-Aldrich, St. Louis, MO, USA) following the manufacturer’s instructions. Samples were imaged on a NanoZoomer digital slide scanner (Hammamatsu Photonics, Shizuoka, Japan) at 40× magnification. Interstitial fibrosis (i.e., non-perivascular fibrosis) was quantified using Aperio ImageScope (Leica Biosystems, Nussloch, Germany). Morphology of the intra-acinar pulmonary vessels was assessed after Verhoeff-Von Gieson staining (Sigma-Aldrich, St. Louis, MO, USA). Samples were imaged on a Leica DM2000 microscope at 63× magnification using Leica Image Acquisition software version 4.13 (Leica, Wetzlar, Germany). Pulmonary vessel remodeling was quantified as described previously.

[1] = test system: right ventricle of PAH rats; experiment: Right ventricle mtDNA copy number, radical scavenging, lipid peroxidation and ATP; conditions: ~6 mg·kg^−1·day^−1 i.p. minipump, 28 days
[2] = test system: neonatal rat cardiomyocytes; experiment: In vitro hypertrophy reporter assay in phenylephrine-treated cardiomyocytes; assay type: cell-based
Method: Cultures of neonatal rat cardiomyocytes were prepared from 1–3-day-old Wistar rats and adenovirally transformed with hypertrophy reporter construct as described elsewhere. Cardiomyocytes were pre-incubated with SUL-150 (3 × 10^−5 M) or vehicle for 30 min and subsequently stimulated with phenylephrine in the dose range of 10^−8 to 10^−4 M for 24 h. Cells were lysed in passive lysis buffer (Promega, Madison, WI, USA), and […] intensity of the lysate was recorded in an EnVision 2102 plate reader (Perkin Elmer, Waltham, MA, USA).

pulmonary artery rings = experiment: Ex vivo myography of pulmonary artery rings, acute SUL-150 pre-incubation, phenylephrine-induced vasoconstriction; design: species or system rat; conditions: 10^−4 M SUL-150 pre-incubation
Method: The fourth-degree branching intralobar pulmonary arteries were carefully dissected under a Leica S4E stereomicroscope as described before. Arterial ring segments (2 mm length) were mounted in a Mulvany-type wire myograph system (model #610M, Danish Myo Technology, Aarhus, Denmark) using Ø40 µm steel wire. Rings were preserved in myography chambers filled with aerated Krebs buffer (pH 7.4) at 37 °C. After 20 min equilibration, rings were stretched to 1.8 kPa using the DMT Normalization Procedure and allowed to equilibrate for an additional 20 min. Analogue–digital signal conversion was performed using PowerLab 8/30, and a myogram was recorded in PowerLab Chart v 5.3 (AD Instruments, Oxford, UK). To assess the acute effects of SUL-150 on vasoconstriction, arterial rings were pre-constricted with 60 mM KCl and, following washout and stabilization, incubated with vehicle (0.1% DMSO) or SUL-150 (10^−4 M) for 20 min. Next, constriction responses to phenylephrine (phenylephrine, Sigma-Aldrich, St. Louis, MO, USA) were recorded in the dose range of 3 × 10^−9 to 3 × 10^−5 M. To assess the chronic effects of SUL-150 treatment, a similar protocol was followed, leaving out the preincubation with vehicle or SUL-150. Isometric responses were calculated as % of maximal KCl-induced constriction, and dose–response curves were recorded to determine the efficacy (Emax) and potency (EC50) of phenylephrine to induce vasoconstriction.

## Cc1c(C)c2c(c(C)c1O)CC[C@](C)(C(=O)N1CCNCC1)O2 [SUL-150, (R)-(6-hydroxy-2,5,7,8-tetramethylchroman-2-yl)(piperazin-1-yl)methanone]
PAH rats
  cardiomyocyte cross-sectional area (right ventricle): 246.1 ± 39.4 µm^2
  cross-sectional vascular area: 888.2 ± 146.7 µm^2
  interstitial fibrosis in the cardiac tissue: 9.3 % of tissue area
  intra-acinar pulmonary vessels, cross-sectional lumen area: 365.7 ± 101.1 µm^2
  intra-acinar vessel occlusion score: 39.0 ± 7.4%
  pulmonary artery wall thickness: 57.6 ± 13.0 µm
  wall–lumen ratio: 0.42 ± 0.12 µmwall·µmlumen^−1
PAH rats; vessels with a luminal area < 40 µm^2
  percentage of non-perfusable vessels: 4.45 ± 2.62%
[1]
  ATP level of the right ventricle: 272.2 ± 26.6 pmol/mg
[1]; result in words
  endogenous radical scavenging activity in right ventricle: maintained
  lipid peroxidation level in right ventricle: decreased lipid peroxidation level to those of sham rats
[2]; SUL-150 3 × 10^−5 M pre-incubated 30 min, phenylephrine 24 h
  Emax of phenylephrine in hypertrophy reporter with SUL-150 co-treatment: 2.36 RFU
[2]; SUL-150 3 × 10^−5 M versus vehicle
  reduction in phenylephrine efficacy in hypertrophy reporter: 40%
Pulmonary artery rings; pulmonary artery rings of PAH rats (day 21 post-MCT)
  Emax of phenylephrine-induced vasoconstriction after SUL-150 pre-incubation: 11.03 % of max
Pulmonary artery rings; pulmonary artery rings of sham rats, % of maximal KCl-induced constriction
  Emax of phenylephrine-induced vasoconstriction after SUL-150 pre-incubation: 15.6 % of max
